The nature of data set [1]: BuOH/H2O distribution coefficient. The class given is physicochemical. To be noted: butanol/water.
The nature of data set [2]: Osmolality of the solution at 200 mg (I + Gd)/ml. The class given is physicochemical. To be noted: prior-art compounds as Na-salt.
The next data set concerns Mouse. Nature of the data set: LD50 (Mouse), acute toxicity. The data set is classed as in vivo.

Take `CN(C(=O)CN1CCN(CC(=O)[O-])CCN(CC(=O)[O-])CCN(CC(=O)[O-])CC1)c1c(I)c(C(=O)NCCNC(=O)CN2CCN(CC(=O)[O-])CCN(CC(=O)[O-])CCN(CC(=O)[O-])CC2)c(I)c(C(=O)NCCNC(=O)CN2CCN(CC(=O)[O-])CCN(CC(=O)[O-])CCN(CC(=O)[O-])CC2)c1I.[Gd+3].[Gd+3].[Gd+3]` [Example 5, 2,4,6-Triiodo-5-({10-[1,4,7-tris-(carboxymethyl)-1,4,7,10-tetraazacyclododecanyl]}acetyl, Gd-complex)methylaminoisophthalic acid-N,N-bis-(3-aza-4-oxopentane-1,5-diyl-{10-[1,4,7-tris-(carboxymethyl)-1,4,7,10-tetraazacyclododecanyl, Gd-complex]})amide]: in data set [1], the “BuOH/H2O Distribution Coefficient” value is 0.00006. For the same compound, the “Osmolality 200 mg (I + Gd)/ml” value in data set [2] is reported as 371 mosmol/l. The “LD50 (Mouse)” value in the data set with Mouse was >12.0 g(I + Gd)/ g(I + Gd)/kg.
Regarding `O=C([O-])CN1CCN(CC(=O)[O-])CCN(CC(=O)NCCNC(=O)c2c(I)c(NC(=O)CN3CCN(CC(=O)[O-])CCN(CC(=O)[O-])CCN(CC(=O)[O-])CC3)c(I)c(C(=O)NCCNC(=O)CN3CCN(CC(=O)[O-])CCN(CC(=O)[O-])CCN(CC(=O)[O-])CC3)c2I)CCN(CC(=O)[O-])CC1.[Gd+3].[Gd+3].[Gd+3]` [Example 7, 2,4,6-Triiodo-5-({10-[1,4,7-tris-(carboxymethyl)-1,4,7,10-tetraazacyclododecanyl]}acetyl, Gd-complex)aminoisophthalic acid-N,N-bis-(3-aza-4-oxopentane-1,5-diyl-{10-[1,4,7-tris-(carboxymethyl)-1,4,7,10-tetraazacyclododecanyl, Gd-complex]})amide], in data set [1], the “BuOH/H2O Distribution Coefficient” value is reported as 0.00005. In addition, the “Osmolality 200 mg (I + Gd)/ml” value in data set [2] was determined as 334 mosmol/l. For the same compound, the “LD50 (Mouse)” value in the data set on Mouse is on record as >12.0 g(I + Gd)/ g(I + Gd)/kg.
`CC(C(=O)NCC(=O)NCCNC(=O)c1c(I)c(C(=O)NCCNC(=O)CNC(=O)C(C)N2CCN(CC(=O)[O-])CCN(CC(=O)[O-])CCN(CC(=O)[O-])CC2)c(I)c(N(C)C(=O)C(C)N2CCN(CC(=O)[O-])CCN(CC(=O)[O-])CCN(CC(=O)[O-])CC2)c1I)N1CCN(CC(=O)[O-])CCN(CC(=O)[O-])CCN(CC(=O)[O-])CC1.[Gd+3].[Gd+3].[Gd+3]` (mixture of isomers) [Example 8, 2,4,6-Triiodo-5-(2-{10-[1,4,7-tris-(carboxymethyl)-1,4,7,10-tetraazacyclododecanyl]}propionyl, Gd-complex)methylaminoisophthalic acid-N,N-bis-(3,6-diaza-4,7-dioxo-8-methyloctane-1,5-diyl-{10-[1,4,7-tris-(carboxymethyl)-1,4,7,10-tetraazacyclododecanyl, Gd-complex]})amide]: the “BuOH/H2O Distribution Coefficient” value in data set [1] turned out to be 0.00005. Also, the “Osmolality 200 mg (I + Gd)/ml” value in data set [2] came to 346 mosmol/l. For the same compound, the “LD50 (Mouse)” value in the data set on Mouse is on record as >12.0 g(I + Gd)/ g(I + Gd)/kg.
Consider `CC(C(=O)NCCNC(=O)c1c(I)c(C(=O)NCCNC(=O)C(C)N2CCN(CC(=O)[O-])CCN(CC(=O)[O-])CCN(CC(=O)[O-])CC2)c(I)c(N(C)C(=O)C(C)N2CCN(CC(=O)[O-])CCN(CC(=O)[O-])CCN(CC(=O)[O-])CC2)c1I)N1CCN(CC(=O)[O-])CCN(CC(=O)[O-])CCN(CC(=O)[O-])CC1.[Gd+3].[Gd+3].[Gd+3]` (stereo not drawn) [Example 1, 2,4,6-Triiodo-5-(2-{10-[1,4,7-tris-(carboxymethyl)-1,4,7,10-tetraazacyclododecanyl]}propionyl, Gd-complex)methylaminoisophthalic acid-N,N-bis-(3-aza-5-methyl-4-oxopentane-1,5-diyl-{10-[1,4,7-tris-(carboxymethyl)-1,4,7,10-tetraazacyclododecanyl,Gd-complex]})amide], for which the “BuOH/H2O Distribution Coefficient” value in data set [1] stood at 0.00005. Further, the “Osmolality 200 mg (I + Gd)/ml” value in data set [2] is given as 358 mosmol/l. The “LD50 (Mouse)” value in the data set with Mouse is >12.0 g(I + Gd)/ g(I + Gd)/kg.

Source of the values: patent US7385054B2, “Trimeric, macrocyclically substituted halo-benzene derivatives” (Schering AG, priority 2004, dated 2008).
